Results on five compounds are retold here after patent US8030341B2, “Dmt-derivative compounds and related compositions and methods of use” (priority 2005, dated 2011).

Where two headings read alike, the source gives them in different places.

Experiment [1] concerns the target T1, μ-opioid receptor (Rattus norvegicus, UniProt P33535).
T1 construct: from tissue; host or cells: rat brain P2 synaptosomal membranes (Sprague-Dawley)
The experiment in a line: opioid receptor binding competition assay, rat brain P2 synaptosomal membranes (μ). As to conditions: Table 3. How it is done: (§1) Synaptosomes were preincubated to remove endogenous opioids, washed in excess ice-cold buffer containing protease inhibitor and stored in a glycerol-containing buffer with protease inhibitor at −80° C. as described in Lazarus et al., J. Med. Chem. 34:1350-55 (1991). […] After incubation, the radiolabeled membranes were rapidly filtered on Whatman GF/C glass fiber filters presoaked in 0.1% polyethylenimine in order to optimize the signal-to-noise ratio, washed with ice-cold BSA buffer, and dried at 75-80° C. Radioactivity was determined using EcoLume (ICN, Costa Mesa, Calif.). All compounds were analyzed in duplicate using 5-8 peptide dosages and several synaptosomal preparations in independent repetitions to ensure statistical significance. The affinity constants (Ki) were calculated according to Cheng and Prusoff (Cheng et al., Biochem. Pharmacol., 22: 3099-3108 ([…])).

Experiment [2] has as its target T2, δ-opioid receptor (Mus musculus, UniProt P32300).
T2 construct: from tissue; host or cells: isolated mouse vas deferens
The experiment in a line: mouse vas deferens (MVD) bioassay. The format is cell-based. As to conditions: Table 4. The source says:
Bioorg. Med. Chem., 11: 675-678 (2003). The isolated tissues were suspended in organ baths containing balanced salt solutions in a physiological buffer, pH 7.5. […]

For experiment [3], the system named is morphine-induced analgesia. Nature of the experiment: inhibition of morphine-induced analgesia after intracerebroventricular administration. As to conditions: mice. The format is in vivo.
The target in experiment [4] is T3, δ-opioid receptor (Rattus norvegicus, UniProt P33533).
T3 construct: from tissue; host or cells: rat brain P2 synaptosomal membranes (Sprague-Dawley)
Nature of the experiment: opioid receptor binding competition assay, rat brain P2 synaptosomal membranes (δ). As to conditions: Table 3; versus [3H]DPDPE; rat brain synaptosomes; read-out: Ki(δ). How it is done:
as §1

For experiment [5], the target named is T4, μ-opioid receptor (Cavia porcellus, UniProt P97266). The experiment in a line: guinea pig ileum (GPI) bioassay. The experiment is classed as cell-based. As to conditions: Table 4. How it is done:
The myenteric plexus longitudinal muscle preparations (2-3 cm segments) from the small intestine of male Hartley strain guinea pigs (GP1) measured μ-opioid receptor agonism and a single mouse vas deferens (MVD) was used to determine δ-opioid receptor agonism as described in Sasaki et al. Bioorg. […] The isolated tissues were suspended in organ baths containing balanced salt solutions in a physiological buffer, pH 7.5. Agonists were tested for the inhibition of electrically evoked contraction and expressed as IC50 (nM) obtained from the dose-response curves.

Experiment [6] deals with T3, δ-opioid receptor. The following applies: Table 3; reference rows marked e, f, g (no SE, no n); cited from earlier work.
Experiment [7] addresses T1, μ-opioid receptor. As to conditions: Table 3, reference rows marked e, f, cited from earlier work; for Ki: g (no SE, no n); for Ki(δ)/Ki(μ): g.
For experiment [8], the target named is T4, μ-opioid receptor. As to conditions: Table 2; reference value marked 6a; cited from earlier work.
The target in experiment [9] is T2, δ-opioid receptor. As to conditions: Table 2; reference value marked 6a; cited from earlier work.

T2 sequence (P32300 whole entry): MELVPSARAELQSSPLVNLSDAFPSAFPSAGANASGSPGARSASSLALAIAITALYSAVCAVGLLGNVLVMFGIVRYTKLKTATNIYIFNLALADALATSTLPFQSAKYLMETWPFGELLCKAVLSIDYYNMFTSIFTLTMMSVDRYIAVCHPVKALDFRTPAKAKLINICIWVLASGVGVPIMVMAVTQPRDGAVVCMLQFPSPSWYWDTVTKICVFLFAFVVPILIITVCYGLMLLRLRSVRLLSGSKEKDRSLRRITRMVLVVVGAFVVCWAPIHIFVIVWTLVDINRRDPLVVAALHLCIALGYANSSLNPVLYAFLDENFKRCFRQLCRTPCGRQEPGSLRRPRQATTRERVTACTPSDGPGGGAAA
T4 sequence (P97266 whole entry, looked up): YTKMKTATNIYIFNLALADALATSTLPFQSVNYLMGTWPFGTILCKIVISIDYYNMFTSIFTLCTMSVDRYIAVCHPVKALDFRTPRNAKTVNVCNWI
T3 sequence (P33533 whole entry): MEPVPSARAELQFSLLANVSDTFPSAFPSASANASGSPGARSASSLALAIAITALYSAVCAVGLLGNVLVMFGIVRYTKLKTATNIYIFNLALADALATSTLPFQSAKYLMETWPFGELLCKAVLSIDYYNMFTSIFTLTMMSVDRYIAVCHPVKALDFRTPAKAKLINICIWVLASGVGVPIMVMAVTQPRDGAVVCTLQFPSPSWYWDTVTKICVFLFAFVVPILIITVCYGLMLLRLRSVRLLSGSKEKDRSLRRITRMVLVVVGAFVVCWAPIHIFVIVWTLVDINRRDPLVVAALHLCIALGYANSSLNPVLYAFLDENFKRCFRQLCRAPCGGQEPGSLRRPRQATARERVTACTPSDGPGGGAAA
T1 sequence (P33535 whole entry): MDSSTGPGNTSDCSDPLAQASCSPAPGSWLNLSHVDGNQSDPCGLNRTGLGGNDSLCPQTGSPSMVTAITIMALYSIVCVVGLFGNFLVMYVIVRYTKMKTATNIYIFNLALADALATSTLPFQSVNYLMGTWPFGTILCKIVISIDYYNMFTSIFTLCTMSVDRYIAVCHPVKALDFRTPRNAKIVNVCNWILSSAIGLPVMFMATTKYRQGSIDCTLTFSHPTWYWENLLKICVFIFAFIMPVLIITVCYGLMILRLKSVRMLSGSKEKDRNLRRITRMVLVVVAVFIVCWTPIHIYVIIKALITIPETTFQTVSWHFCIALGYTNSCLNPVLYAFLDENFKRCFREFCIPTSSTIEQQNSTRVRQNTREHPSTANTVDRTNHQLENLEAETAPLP

Usually Ki stands for the equilibrium dissociation constant of an inhibitor or competing ligand from its target. Consider `C=CCNC(Cc1c(C)cc(O)cc1C)C(=O)NCCCCCCNC(=O)C(Cc1c(C)cc(O)cc1C)NCC=C` (centres unmarked) [Compound 33, Bis-[(N-allyl)Dmt-NH]hexyl], for which the “Ki(δ)/Ki(μ)” value on μ-opioid receptor [1] (selectivity ratio) is recorded as 11. In addition, the Ki on μ-opioid receptor [1] (versus [3H]DAMGO, rat brain synaptosomes, read-out: Ki(μ)) is 6.94 ± 1.4 nM; at δ-opioid receptor [4], 77.8 ± 14 nM. In addition, the IC50 at δ-opioid receptor [2] (agonism, read-out: MVD) is more than 10000 nM; at μ-opioid receptor [5] (agonism, read-out: GPI) it was more than 10000 nM. For the same compound, the “MVD pA2” value at δ-opioid receptor [2] (δ antagonism) is listed as 6.83. Further, the “inhibition of morphine-induced analgesia” value in experiment [3] was “inhibit morphine-induced analgesia”. Further, on μ-opioid receptor [5] (selectivity of antagonism), the “pA2(μ)/pA2(δ)” value came to 2.5. Further, the “GPI pA2” value on μ-opioid receptor [5] (μ antagonism) was 7.23.
With `Cc1cc(O)cc(C)c1CC(N)C(=O)NCCCc1cnc(CCCNC(=O)C(N)Cc2c(C)cc(O)cc2C)c(=O)[nH]1` (centres unmarked) [Compound 37, 3,6-Bis-[Dmt-NH-propyl]pyrazinone], the inhibitory constant (Ki) at δ-opioid receptor [6] was 13.2 nM. Moreover, at μ-opioid receptor [7], the inhibition constant (Ki) is 0.042 nM and the “Ki(δ)/Ki(μ)” value was 307.
Take `Cc1cc(O)cc(C)c1C[C@H](N)C(=O)NCCCCCCNC(=O)[C@@H](N)Cc1c(C)cc(O)cc1C` [H-Dmt[NH—(CH2)6—NH]Dmt-H]: the “Ki(δ)/Ki(μ)” value on μ-opioid receptor [7] was 870.
For the compound `Oc1ccc2c3c1O[C@H]1c4[nH]c5ccccc5c4C[C@@]4(O)[C@@H](C2)N(CC2CC2)CC[C@]314` [Naltrindole], at μ-opioid receptor [8], the “GPI Antagonist pA2” value is on record as 7.3 and the “GPI Antagonist pA2 (nM), value in parentheses (Ke)” value is on record as 50 nM. For the same compound, on δ-opioid receptor [9], the “MVD Antagonist pA2” value was 9.2 and the “MVD Antagonist pA2 (nM), value in parentheses (Ke)” value is 0.631 nM.
For H-Dmt-Pro-Phe-Phe-NH2 [[Dmt^1]EM-2], the Ki on δ-opioid receptor [6] is 28.2 nM. For the same compound, on μ-opioid receptor [7], the inhibition constant Ki was 0.15 nM and the “Ki(δ)/Ki(μ)” value is recorded as 188.
